Experimental data as given in the supplement of paper PMC7661543.
± gives the standard deviation of the averaged measurements.

What was measured:
Experiment in all cases: relative cell number vs DMSO control (72 h) (% of DMSO); higher = less growth inhibition (more cells)
Conditions in all cases: sgRNA knockout: sgNT
SKBR3 = system: SKBR3
Procedure, shortened: (§1)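 Sample-specific 293T spike-in standard curves were used to interpolate cell numbers from sequenced sgRNA and cell-line barcode reads. These reads came from pooled Cas9-engineered breast cancer lines with 12 sgRNA perturbations each. The lines were induced with 100 ng/mL doxycycline for 6 days, seeded at 5000 cells per 96-well, and treated in duplicate for 72 h at four 10-fold doses (10 nM–10 μM or 1 nM–1 μM). Relative cell number is expressed in percent of the DMSO-treated sample median.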

HCC-38 = system: HCC-38
Procedure, shortened: as §1

ZR-75-1 = system: ZR-75-1
Procedure, shortened: as §1

BT-20 = system: BT-20
Procedure, shortened: as §1

MDA-MB-231 = system: MDA-MB-231
Procedure, shortened: as §1

Row | Structure (SMILES) | relative cell number (SKBR3; 10 nM) | relative cell number (SKBR3; 100 nM) | relative cell number (SKBR3; 1000 nM) | relative cell number (SKBR3; 10000 nM) | relative cell number (HCC-38; 10 nM) | relative cell number (HCC-38; 100 nM) | relative cell number (HCC-38; 1000 nM) | relative cell number (HCC-38; 10000 nM) | relative cell number (ZR-75-1; 10 nM) | relative cell number (ZR-75-1; 100 nM) | relative cell number (ZR-75-1; 1000 nM) | relative cell number (ZR-75-1; 10000 nM) | relative cell number (BT-20; 10 nM) | relative cell number (BT-20; 100 nM) | relative cell number (BT-20; 1000 nM) | relative cell number (BT-20; 10000 nM) | relative cell number (MDA-MB-231; 10 nM) | relative cell number (MDA-MB-231; 100 nM) | relative cell number (MDA-MB-231; 1000 nM) | relative cell number (MDA-MB-231; 10000 nM)
1 | CC(C)[C@H](O)C(=O)N[C@@H](C)C(=O)N[C@@H]1C(=O)N(C)CCc2ccccc21 [Semagacestat] | 112 ± 42 | 83.1 ± 31 | 72.2 ± 6.8 | 107 ± 42 | 107 ± 6.6 | 107 ± 4.2 | 118 ± 3.2 | 84.4 ± 1.2 | 112 ± 22 | 92 ± 28 | 89.7 ± 24 | 132 ± 19 | 92.3 ± 13 | 86.5 ± 12 | 113 ± 9.9 | 113 ± 23 | 126 ± 5.3 | 83.5 ± 15 | 91.7 ± 11 | 96.9 ± 12
2 | CCCc1nn(C)c2c(=O)[nH]c(-c3cc(S(=O)(=O)N4CCN(C)CC4)ccc3OCC)nc12 [Sildenafil] | 82.23 ± 0.8 | 91.7 ± 25 | 62.7 ± 0.37 | 68.1 ± 16 | 89.5 ± 15 | 92.7 ± 4.1 | 103 ± 9.7 | 124 ± 18 | 105 ± 9.5 | 117 ± 58 | 86.3 ± 26 | 57.6 ± 2.1 | 95.7 ± 16 | 110 ± 2.7 | 95.2 ± 0.97 | 107 ± 3.9 | 114 ± 8.2 | 85 ± 15 | 97.7 ± 22 | 57.1 ± 8.9
3 | CCC(C)(C)C(=O)O[C@H]1C[C@@H](C)C=C2C=C[C@H](C)[C@H](CC[C@@H]3C[C@@H](O)CC(=O)O3)[C@H]21 [Simvastatin] | 95.7 ± 4.9 | 60.8 ± 3.1 | 113 ± 23 | 66.7 ± 15 | 90.5 ± 2.1 | 96 ± 21 | 103 ± 12 | 87.5 ± 13 | 95.6 ± 57 | 75.2 ± 6 | 109 ± 39 | 75.6 ± 20 | 108 ± 18 | 72.5 ± 13 | 89.7 ± 26 | 91.4 ± 19 | 130 ± 20 | 115 ± 28 | 82.6 ± 8.9 | 34.2 ± 13
4 | N[C@@H](CC(=O)N1CCn2c(nnc2C(F)(F)F)C1)Cc1cc(F)c(F)cc1F [Sitagliptin] | 87.3 ± 2.4 | 89.5 ± 3.5 | 82.6 ± 2.9 | 89.8 ± 3.9 | 106 ± 10 | 99.2 ± 12 | 106 ± 5 | 92.2 ± 1.9 | 118 ± 6.4 | 84.6 ± 64 | 124 ± 34 | 96.5 ± 5.2 | 107 ± 24 | 90.6 ± 5.2 | 74.2 ± 14 | 123 ± 24 | 114 ± 63 | 86.6 ± 14 | 113 ± 32 | 120 ± 77
5 | CNC(=O)c1cc(Oc2ccc(NC(=O)Nc3ccc(Cl)c(C(F)(F)F)c3)cc2)ccn1 [Sorafenib] | 102 ± 4.4 | 97.1 ± 4.3 | 106 ± 2.8 | 47.8 ± 11 | 97.1 ± 9.2 | 133 ± 45 | 124 ± 8.8 | 54.6 ± 2.4 | 70.2 ± 11 | 104 ± 2.9 | 87.4 ± 19 | 41.7 ± 17 | 116 ± 3.8 | 100 ± 13 | 108 ± 36 | 50.8 ± 8.9 | 86.7 ± 5 | 93 ± 8.3 | 90.7 ± 10 | 41.1 ± 4.4
6 | Fc1ccc(CNc2ncnc3ccc(F)cc23)cc1 [Spautin1] | 87.9 ± 40 | 85.3 ± 0.86 | 87.4 ± 8.4 | 92 ± 23 | 104 ± 8 | 99.2 ± 11 | 111 ± 3.9 | 106 ± 1.6 | 55.6 ± 14 | 70.6 ± 3.6 | 94.4 ± 13 | 49.3 ± 9.3 | 96.8 ± 34 | 86 ± 36 | 89.8 ± 13 | 88.6 ± 19 | 124 ± 29 | 97 ± 34 | 77.7 ± 26 | 74.8 ± 8
7 | CC(C)n1cnc2c(NCCc3ccc(O)cc3)nc(-c3csc4ccccc34)nc21 [StemRegenin1] | 103 ± 9 | 108 ± 14 | 85.7 ± 28 | 29.6 ± 8.4 | 90 ± 7.6 | 116 ± 2.2 | 104 ± 2.8 | 86 ± 4 | 65.1 ± 15 | 135 ± 5.4 | 153 ± 85 | 30.4 ± 12 | 98.5 ± 13 | 115 ± 20 | 94.3 ± 36 | 55 ± 7.7 | 101 ± 24 | 97.5 ± 25 | 132 ± 74 | 75.9 ± 11
8 | NC(=O)Nc1sc(-c2ccc(F)cc2)cc1C(N)=O [TPCA1] | 92.2 ± 32 | 93.1 ± 17 | 102 ± 8.7 | 54.5 ± 1.1 | 90.2 ± 2.3 | 94.5 ± 5.5 | 100 ± 6.1 | 74.1 ± 4.5 | 104 ± 42 | 94.7 ± 6 | 99.5 ± 6.5 | 43.1 ± 5.7 | 119 ± 19 | 101 ± 34 | 102.8 ± 0.57 | 69.2 ± 3.1 | 111 ± 21 | 127 ± 23 | 130 ± 4.7 | 69.6 ± 7.9
9 | C=CC[C@@H]1/C=C(\C)C[C@H](C)C[C@H](OC)[C@H]2O[C@@](O)(C(=O)C(=O)N3CCCC[C@H]3C(=O)O[C@H](/C(C)=C/[C@@H]3CC[C@@H](O)[C@H](OC)C3)[C@H](C)[C@@H](O)CC1=O)[C@H](C)C[C@@H]2OC [Tacrolimus] | 108 ± 22 | 90.6 ± 11 | 101 ± 17 | 128.1 ± 0.39 | 117 ± 8.4 | 99.57 ± 0.7 | 115 ± 14 | 114 ± 5.7 | 108 ± 7.9 | 91.5 ± 29 | 85.6 ± 18 | 92.8 ± 28 | 110 ± 2.2 | 105 ± 4.6 | 101 ± 16 | 120 ± 26 | 133 ± 27 | 106 ± 7.6 | 96.7 ± 7 | 135 ± 12
10 | Cn1nnc2c(C(N)=O)ncn2c1=O [Temozolomide] | 111 ± 8.3 | 84.7 ± 20 | 104 ± 27 | 96.1 ± 40 | 115 ± 2.3 | 89.6 ± 1.4 | 113 ± 6.5 | 137 ± 26 | 89.66 ± 0.62 | 103 ± 16 | 81.7 ± 5.9 | 86.6 ± 3.4 | 106 ± 24 | 111 ± 30 | 111 ± 14 | 132 ± 37 | 125 ± 13 | 108 ± 27 | 89 ± 25 | 101.6 ± 0.8
11 | COc1cc([C@@H]2c3cc4c(cc3[C@@H](O[C@@H]3O[C@@H]5CO[C@@H](c6cccs6)O[C@H]5[C@H](O)[C@H]3O)[C@H]3COC(=O)[C@H]23)OCO4)cc(OC)c1O [Teniposide] | 101 ± 6.8 | 26.4 ± 3.2 | 18.4 ± 2.3 | 15.9 ± 0.19 | 87.1 ± 7.7 | 43 ± 5.7 | 25.52 ± 0.049 | 13.4 ± 2 | 55.8 ± 2.6 | 31.4 ± 6.7 | 29.9 ± 8.2 | 26.1 ± 0.97 | 98.2 ± 1.9 | 67.9 ± 24 | 51.2 ± 5.6 | 22.6 ± 5.8 | 75.8 ± 16 | 25.4 ± 1.1 | 11 ± 1.3 | 11.2 ± 4.8
12 | O=C1CCC(N2C(=O)c3ccccc3C2=O)C(=O)N1 (stereo not given) [Thalidomide] | 109 ± 39 | 59.4 ± 1.9 | 115 ± 17 | 106 ± 2.4 | 108 ± 8.4 | 95.3 ± 1.2 | 117 ± 4.4 | 115 ± 10 | 79.7 ± 19 | 90.8 ± 6.8 | 74.2 ± 13 | 97.2 ± 55 | 118 ± 11 | 91 ± 0.81 | 114 ± 18 | 113 ± 9 | 128 ± 37 | 74.8 ± 24 | 102 ± 29 | 124 ± 19
